The source of these data is PubChem BioAssay (NCI).

Structures are written as SMILES.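 Grown in 96-well plates, cells were treated for 48 hours with each compound at five concentrations. Insufficient inhibition: endpoint recorded as highest concentration tested. GI50 is the concentration that inhibits growth by half. TGI denotes the concentration required for complete inhibition of growth.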 Where a SMILES comes first, the peptide text is derived from it. The star is where a group is joined. ONb = O=[N+]([O-])c1ccc(CO*)cc1; Boc = CC(C)(C)OC(=O)*

What all share (experiment): inhibition of tumour cell growth, NCI panel, 48 h
Experiment [1] concerns CAKI-1 renal.
The test system of experiment [2] is RPMI-8226 leukemia.
Experiment [3] has as its system NCI-H522 lung.
Experiment [4] concerns CCRF-CEM leukemia.
The subject of experiment [5] is COLO 205 colon.
Experiment [6] relates to TK-10 renal.
The test system of experiment [7] is SR leukemia.
The subject of experiment [8] is MDA-N.
For experiment [9], the system named is MDA-MB-435.
The test system of experiment [10] is ACHN renal.

As to `Cc1c2cnccc2c(C)c2c1c1ccccc1n2CCCCCCNCc1ccccc1`, the TGI in experiment [1] is 3.48 µM; in experiment [2], 3.44 µM; in experiment [3], 3.63 µM; in experiment [4], 5.13 µM; in experiment [5] it was 3.07 µM.

Consider `N#CCCC1(CCC#N)CCCCCCCCC(CCC#N)(CCC#N)C(=O)C1=O`, for which the TGI in experiment [6], in experiment [1], in experiment [7], in experiment [8], in experiment [9] and in experiment [10] was greater than 100 µM throughout. Besides, the values for the TGI in experiment [3] and in [5] were 88.2 µM and greater than 100 µM, respectively.

As to `CN(C)c1nncc2[nH]cnc12`, the TGI in experiment [6], in experiment [1], in experiment [2], in experiment [7], in [9] and in experiment [10] was greater than 100 µM throughout. Besides, the TGI in experiment [4] and in experiment [5] was greater than 100 µM throughout.

Take `N#C/C(=C\c1cc(Cl)cc(Cl)c1)c1ccccn1`: the TGI is greater than 100 µM in experiment [6]; greater than 100 µM in experiment [1]; greater than 100 µM in experiment [2]; greater than 100 µM in experiment [7]; 40.2 µM in experiment [8]; greater than 100 µM in experiment [10]. Besides, the TGI in experiment [3], in [4] and in [5] was greater than 100 µM throughout.

As to `Cc1ccc(-n2[nH]nc(C#N)c2=O)cc1`, the TGI in experiment [6], in experiment [1], in experiment [2], in [8], in experiment [9] and in [10] was greater than 100 µM each time. Further, the TGI in [3], in experiment [4] and in experiment [5] was greater than 100 µM throughout.

`O=C1/C(=C/c2ccc(Cl)cc2)N=C(c2ccccc2)N1CCc1cccs1`: the GI50 is 27.9 µM in [6]; 20.4 µM in experiment [1]; 14.5 µM in experiment [2]; 24.2 µM in [7]; 28 µM in [9]; 28.8 µM in [10]. Besides, the GI50 was 15.3 µM in experiment [3], 22.7 µM in experiment [4] and 16 µM in [5]. For the same compound, the TGI in experiment [6] is greater than 100 µM; in experiment [1], greater than 100 µM; in experiment [2], 83.4 µM; in experiment [7], greater than 100 µM; in experiment [9], greater than 100 µM; in [10], greater than 100 µM. The results for the TGI in experiment [3], in experiment [4] and in experiment [5] were 74 µM, greater than 100 µM and 39.9 µM, respectively.

As for `CCOC(=O)C(C(=S)Nc1ccccc1)c1nn2c(=O)cc(C)nc2s1` (stereo not given), the TGI in [6] is 86.8 µM; in experiment [1] it was 84.7 µM; in experiment [2] it was 67.5 µM; in experiment [7] it was 80.9 µM; in experiment [9], 47.7 µM; in experiment [10], 66.6 µM. Moreover, the values for the TGI in experiment [3], in experiment [4] and in experiment [5] were 53.9 µM, greater than 100 µM and 39.5 µM, respectively.

Turning to `CN1CCC(CN2c3ccccc3Sc3ccccc32)CC1`, the TGI came to 29.2 µM in [6]; 18 µM in [1]; 30.7 µM in experiment [2]; 33.3 µM in [7]; 29.7 µM in experiment [10]; 28.3 µM in experiment [3]. In addition, the TGI in experiment [4] came out at 35.9 µM; in experiment [5], 27.1 µM.

In the case of `CNC(=O)N(C)COC`, the TGI in [1], in [2], in [7], in experiment [10], in experiment [3] and in [4] was greater than 100 µM throughout. The compound also displayed a TGI in experiment [5] greater than 100 µM.

As for `CC(C)CC(NC(=O)OC(C)(C)C)C(=O)NC(CCC(=O)OCc1ccc([N+](=O)[O-])cc1)C(=O)OCc1ccc([N+](=O)[O-])cc1` (stereo not drawn) (Boc-Leu-Glu(ONb)-ONb; configuration not given here), the TGI in experiment [6] is greater than 100 µM; in [1], greater than 100 µM; in experiment [2], 88.4 µM; in [7], 37.1 µM; in experiment [8] it was greater than 100 µM; in experiment [10], greater than 100 µM. Moreover, the TGI in experiment [4] was 57.5 µM; in experiment [5] it was greater than 100 µM.

With `CCCCCCCCCCCCCC[n+]1ccc2c(C)c3c(c(C)c2c1)c1cc(O)ccc1n3CC`, the GI50 is 0.337 µM in experiment [6]; 0.31 µM in [2]; 0.314 µM in [9]; 1.22 µM in experiment [10]; 0.42 µM in experiment [3]. For the same compound, the TGI in experiment [6] is 1.54 µM; in experiment [2], 1.99 µM; in experiment [9], 1.03 µM; in [10], 3.9 µM; in [3], 2 µM.

For `CSc1c(C#N)c(N)nc2c(N=Nc3ccc(Cl)cc3)c(N)nn12`, the TGI amounted to 26.8 µM in experiment [6]; 34.5 µM in [1]; 7.12 µM in experiment [2]; 23.4 µM in experiment [8]; 28.1 µM in [9]; 12.4 µM in experiment [10]. In addition, the TGI in [3] amounted to 22.5 µM; in [4] it was 5.47 µM; in experiment [5], 30.3 µM.

In the case of `O=C1/C(=C/c2cccc(Br)c2)CSC/C1=C\c1cccc(Br)c1`, the TGI was 16.8 µM in experiment [6]; 6.06 µM in [1]; 6.42 µM in experiment [2]; greater than 100 µM in experiment [7]; 6.98 µM in [8]; 9.88 µM in experiment [10]. In addition, the values for the TGI in experiment [3], in experiment [4] and in experiment [5] were 4.14 µM, 6.45 µM and 8.53 µM, respectively.

In the case of `O=c1[nH]c(Nc2cc(Cl)cc(Cl)c2)nc2nc[nH]c12`, the TGI in experiment [6], in experiment [1], in experiment [2], in experiment [8], in experiment [9] and in [10] was greater than 75 µM each time. Also, the TGI in [4] and in [5] was greater than 75 µM in each case.
